# Source: patent publication US11401246B2, “Triazole glycolate oxidase inhibitors” (CANTERO THERAPEUTICS, INC., priority 2018, dated 2022)
# Target: T1, human glycolate oxidase (hGO) (Homo sapiens, UniProt Q9UJM8)
# T1 construct: His-tag (6 histidines, pET-15b) (N); made in house; host or cells: E. coli BL21 (DE3)
# T1 sequence (Q9UJM8 1-370): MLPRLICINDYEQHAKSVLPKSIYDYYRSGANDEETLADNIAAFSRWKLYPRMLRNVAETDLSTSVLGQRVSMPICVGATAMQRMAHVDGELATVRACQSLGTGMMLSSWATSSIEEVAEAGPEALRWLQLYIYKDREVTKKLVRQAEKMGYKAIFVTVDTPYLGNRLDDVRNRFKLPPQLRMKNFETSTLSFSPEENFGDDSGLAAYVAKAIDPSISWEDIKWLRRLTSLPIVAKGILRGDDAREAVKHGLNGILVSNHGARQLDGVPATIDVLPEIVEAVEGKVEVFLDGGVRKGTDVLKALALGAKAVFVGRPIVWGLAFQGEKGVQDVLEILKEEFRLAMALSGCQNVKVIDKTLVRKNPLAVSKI
# Experiment: In vitro inhibition of human glycolate oxidase (enzymatic assay, HRP-coupled Trinder reaction);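 as to % Inhibition: values are IC50 potency bins despite the % Inhibition label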
# Assay type: biochemical
# Details: not given
# Source text: The catalytic reactions used for assaying glycolate oxidase activity in the presence of compounds according to the present disclosure are outlined in FIG. 2. Glycolate oxidase (GO)-catalyzed conversion of glycolate to glyoxylate (top reaction), with the concomitant reduction of the cofactor flavin mononucleotide (FMN), uses molecular oxygen (O2) for recovering its oxidative state, releasing hydrogen peroxide (H2O2). The Trinder reaction (bottom reaction), in which horseradish peroxidase (HRP) uses hydrogen peroxide, 4-aminoantipyrine and a phenol derivative (sulphonated DCIP) to generate a quinoneimine dye that is spectrophotometrically measured.
# Human glycolate oxidase (hGO) expression. BL21 (DE3) E. coli transformed with recombinant pET-15b expression vector with the N-terminal His-tag human Hao1 cDNA was grown in LB medium in the presence of 0.1 mg/ml ampicillin. For purification of recombinant human glycolate oxidase (hGO) expressed in BL21 E. coli, bacteria pellets were thawed and re-suspended in 2 ml lysis buffer (50 mM NaH2PO4, 300 mM NaCl, 10 mM imidazole, 50 μM FMN, pH 7.5), and then treated for 30 minutes with 1 mM PMSF for protease inhibition, 0.1% Triton X-100 and 0.2 mg/ml lysozyme to break cellular membranes. After sonication, cells were centrifuged and the supernatant containing the total cellular extract (pre-column fraction) was loaded into a Ni-NTA agarose column and incubated for 30 minutes at 4° C. to allow binding of the 6 histidine tail of recombinant GO protein to the nickel ions. The column was washed with two bed volumes of lysis buffer with 20 mM imidazole to eliminate unbound proteins (wash fraction). GO was eluted using the same buffer with 300 mM imidazole. Fraction containing purified GO was dialyzed against 300 ml of dialysis buffer (50 mM NaH2PO4, 300 mM NaCl, pH 7.5) at 4° C. in agitation overnight, and then kept at 4° C. in darkness. Protein were quantified by the bicinchoninic acid (BCA) assay.
# Enzymatic assays. Enzymatic activity of hGO was determined in the presence of glycolate as substrate (40 mM glycolic acid) and phosphate buffer (50 mM KPO4, 0.1 mM EDTA, pH 7). The production of glyoxylate was indirectly measured by the quantification of hydrogen peroxide formed during the first oxidation reaction. […] Enzymatic activity was calculated at 1 minute after initiation of the Trinder reaction.
row,IC50 [nM],Compound
1,100 to 200,"COc1ccc(-c2ccc(Oc3[nH]nnc3C(=O)O)cc2)cc1 [Example 22, 5-((4′-methoxy-[1,1′-biphenyl]-4-yl)oxy)-1H-1,2,3-triazole-4-carboxylic Acid]"
2,< 100,"Cc1ccc(-c2ccc(Oc3[nH]nnc3C(=O)O)cc2)cc1 [Example 31, 5-((4′-methyl-[1,1′-biphenyl]-4-yl)oxy)-1H-1,2,3-triazole-4-carboxylic Acid]"
3,> 200,"O=C(O)c1nn[nH]c1Oc1ccccc1 [Example 45, 5-phenoxy-1H-1,2,3-triazole-4-carboxylic Acid]"
4,< 100,"O=C(O)c1nn[nH]c1Oc1ccc(Cl)cc1 [Example 36, 5-(4-chlorophenoxy)-1H-1,2,3-triazole-4-carboxylic Acid]"

# Same assay, conditions: recombinant hGO, 40 mM glycolic acid, pH 7, read at 515 nm, 1 minute after initiation of Trinder reaction; read-out: % Inhibition
row,Compound,IC50 [nM]
1,"O=C(O)c1nn[nH]c1Oc1ccc(N2CCOCC2)cc1 [Example 1, 5-(4-morpholinophenoxy)-1H-1,2,3-triazole-4-carboxylic Acid]",> 200
2,"CC(C)(C)c1ccc(Oc2[nH]nnc2C(=O)O)cc1 [Example 68, 5-(4-(tert-butyl)phenoxy)-1H-1,2,3-triazole-4-carboxylic Acid]",> 200
3,"O=C(O)c1nn[nH]c1Oc1ccccc1Br [Example 5, 5-(2-bromophenoxy)-1H-1,2,3-triazole-4-carboxylic Acid]",> 200
4,"O=C(O)c1nn[nH]c1Oc1cccnc1Br [Example 66, 5-((2-bromopyridin-3-yl)oxy)-1H-1,2,3-triazole-4-carboxylic Acid]",> 200
5,"O=C(O)c1nn[nH]c1Oc1ccc(Br)cc1F [Example 51, 5-(4-bromo-2-fluorophenoxy)-1H-1,2,3-triazole-4-carboxylic Acid]",< 100
6,"O=C(O)c1nn[nH]c1Oc1ccc(-c2cnn(C3CCC3)c2)cc1 [Example 21, 5-(4-(1-cyclobutyl-1H-pyrazol-4-yl)phenoxy)-1H-1,2,3-triazole-4-carboxylic Acid]",< 100
7,"O=C(O)c1nn[nH]c1Sc1ccc(F)cc1 [Example 47, 5-((4-fluorophenyl)thio)-1H-1,2,3-triazole-4-carboxylic Acid]",100 to 200
8,"CC(C)c1ccc(-c2ccc(Oc3[nH]nnc3C(=O)O)cc2)cc1 [Example 32, 5-((4′-isopropyl-[1,1′-biphenyl]-4-yl)oxy)-1H-1,2,3-triazole-4-carboxylic Acid]",< 100
9,"O=C(O)c1nn[nH]c1Oc1ccc(-c2cccc(F)c2F)cc1 [Example 34, 5-((2′,3′-difluoro-[1,1′-biphenyl]-4-yl)oxy)-1H-1,2,3-triazole-4-carboxylic Acid]",100 to 200
10,"CC(C)(C)c1ccc(-c2ccc(Oc3[nH]nnc3C(=O)O)cc2)cc1 [Example 35, 5-((4′-(tert-butyl)-[1,1′-biphenyl]-4-yl)oxy)-1H-1,2,3-triazole-4-carboxylic Acid]",100 to 200
11,"Cc1ccc(-c2ccc(Oc3[nH]nnc3C(=O)O)cc2)c(F)n1 [Example 79, 5-(4-(2-fluoro-6-methylpyridin-3-yl)phenoxy)-1H-1,2,3-triazole-4-carboxylic Acid]",< 100
12,"O=C(O)c1nn[nH]c1Oc1ccc(-c2ccccc2OC(F)F)cc1 [Example 28, 5-((2′-(difluoromethoxy)-[1,1′-biphenyl]-4-yl)oxy)-1H-1,2,3-triazole-4-carboxylic Acid]",100 to 200
13,"CC(=O)N1CCN(c2ccc(Oc3[nH]nnc3C(=O)O)cc2)CC1 [Example 3, 5-(4-(4-acetylpiperazin-1-yl)phenoxy)-1H-1,2,3-triazole-4-carboxylic Acid]",> 200
14,"O=C(O)c1nn[nH]c1Oc1cccc(-c2cccnc2F)c1 [Example 61, 5-(3-(2-fluoropyridin-3-yl)phenoxy)-1H-1,2,3-triazole-4-carboxylic Acid]",< 100
15,"O=C(O)c1nn[nH]c1Oc1ccc(-n2cccn2)cc1 [Example 4, 5-(4-(1H-pyrazol-1-yl)phenoxy)-1H-1,2,3-triazole-4-carboxylic Acid]",< 100
16,"O=C(O)c1nn[nH]c1Oc1ccc(-c2ccc(F)c(Cl)c2)cc1 [Example 33, 5-((3′-chloro-4′-fluoro-[1,1′-biphenyl]-4-yl)oxy)-1H-1,2,3-triazole-4-carboxylic Acid]",< 100
17,"O=C(O)c1nn[nH]c1Oc1ccc(-c2cccc(OC(F)F)c2)nc1 [Example 44, 5-((6-(3-(difluoromethoxy)phenyl)pyridin-3-yl)oxy)-1H-1,2,3-triazole-4-carboxylic Acid]",100 to 200
18,"O=C1CCC(c2ccc(Oc3[nH]nnc3C(=O)O)cc2)CC1 [Example 77, 5-(4-(4-oxocyclohexyl)phenoxy)-1H-1,2,3-triazole-4-carboxylic Acid]",100 to 200

# Now from value to compound:
row,IC50 [nM],Compound
1,100 to 200,"O=C(O)c1nn[nH]c1Oc1ccc(-c2cncc3ccccc23)cc1 [Example 96, 5-(4-(isoquinolin-4-yl)phenoxy)-1H-1,2,3-triazole-4-carboxylic Acid]"
2,100 to 200,"O=C(O)c1[nH]nnc1Oc1ccc(C2CCC(F)(F)CC2)cc1 [Example 87, 5-(4-(4,4-difluorocyclohexyl)phenoxy)-1H-1,2,3-triazole-4-carboxylic Acid]"
3,100 to 200,"CS(=O)(=O)c1ccc(-c2ccc(Oc3[nH]nnc3C(=O)O)c(F)c2)cc1 [Example 105, 5-((3-fluoro-4′-(methylsulfonyl)-[1,1′-biphenyl]-4-yl)oxy)-1H-1,2,3-triazole-4-carboxylic Acid]"
4,< 100,"O=C(O)c1nn[nH]c1Oc1ccc(-c2ccnc3ccccc23)cc1 [Example 83, 5-(4-(quinolin-4-yl)phenoxy)-1H-1,2,3-triazole-4-carboxylic Acid]"
5,100 to 200,"CC(C)(C)c1ccc(-c2ccc(Oc3[nH]nnc3C(=O)O)c(F)c2)cc1 [Example 106, 5-((4′-(tert-butyl)-3-fluoro-[1,1′-biphenyl]-4-yl)oxy)-1H-1,2,3-triazole-4-carboxylic Acid]"
6,100 to 200,"O=C(O)c1nn[nH]c1Oc1ccc(-c2ccc(-c3cccnc3)cc2)cc1 [Example 120, 5-[4[4-(3-pyridyl)phenyl]phenoxy]-1H-1,2,3-triazole-4-carboxylic Acid]"
7,100 to 200,"O=C(O)c1nn[nH]c1Sc1ccc(-c2ccc(C(F)(F)F)cc2)cc1 [Example 115, 5-((4′-(trifluoromethyl)-[1,1′-biphenyl]-4-yl)thio)-1H-1,2,3-triazole-4-carboxylic Acid]"
8,< 100,"O=C(O)c1nn[nH]c1Oc1ccc(-c2ccnc(F)c2)cc1 [Example 92, 5-(4-(2-fluoropyridin-4-yl)phenoxy)-1H-1,2,3-triazole-4-carboxylic Acid]"
9,100 to 200,"O=C(O)c1nn[nH]c1Oc1ccc(-c2cccc(C(F)(F)F)c2)cc1 [Example 112, 5-((3′-(trifluoromethyl)-[1,1′-biphenyl]-4-yl)oxy)-1H-1,2,3-triazole-4-carboxylic Acid]"
10,> 200,"O=C(O)c1nn[nH]c1Oc1ccc(C2CC2(F)F)cc1 (stereo not shown) [Example 130, 5-(4-(2,2-difluorocyclopropyl)phenoxy)-1H-1,2,3-triazole-4-carboxylic Acid]"
11,> 200,"O=C(O)c1nn[nH]c1Oc1ccc(C2CCC3(CC2)CC3(F)F)cc1 (stereo not shown) [Example 126, 5-(4-(1,1-Difluorospiro[2.5]octan-6-yl)phenoxy)-1H-1,2,3-triazole-4-carboxylic acid]"
12,> 200,"CC(C)c1cccc(-c2ccc(Oc3[nH]nnc3C(=O)O)cc2)c1 [Example 109, 5-((3′-isopropyl-[1,1′-biphenyl]-4-yl)oxy)-1H-1,2,3-triazole-4-carboxylic Acid]"
